# Measurements as given in patent US20230077723A1, “N-SUBSTITUTED-3,4-(FUSED 5-RING)-5-PHENYL-PYRROLIDINE-2-ONE COMPOUNDS AS INHIBITORS OF ISOQC AND/OR QC ENZYME” (Scenic Immunology B.V., priority 2019, published 2023).
# Test system: pyroglutamylated CD47 (pE-CD47) in KBM7 cells
# Experiment: Assay 6 - cell-based potency assay (pE-CD47 CC2C6 staining vs total CD47)
# Set-up: species or system human
# Conditions: 72 hours, CC2C6 signal, read-out: Cell Pot. Assay No. 6
# Protocol: Cells were spun for 4 minutes at 1500 rpm and washed once with PBS/0.5% BSA. Cells were spun down again and the supernatant was removed and incubated in 100 uL antibody staining solution (PBS/0.5% BSA/0.1 μg/mL DAPI (4′,6-diamidino-2-phenylindole, ThermoFisher Scientific) and a mixture of 1:500 FITC-conjugated anti-human CD47 clone 2D3, which recognizes total CD47 irrespective of its pyroglutamylation state, and 1:500 Alexa647-conjugated anti-human CD47 clone CC2C6, which specifically detects pyroglutamylated CD47) for 2 hours at 4° C. Next, the cells were spun down and washed twice with 2×150 μL PBS/0.5% BSA to remove unbound antibody. Cells were again spun down and taken up in 300 μL FACS buffer before analysis on a Celesta FACS machine (BD Biosciences).
# KBM7 cells (Kotecki et al., 1999) were infected with lentivirus produced by transfecting pSCNC-LentiCRISPR-QPCTL or pSCNC-LentiCRISPR-CD47 into HEK-293T cells according to standard protocols. After 24 hours incubation, cells were selected with puromycin (Invivogen, 1 μg/mL) for 48 hours. Cells were stained for total CD47 and pE-CD47 and QPCTL k.o. cells were sorted out as negative for pE-CD47, and CD47 k.o. cells as negative for total CD47, using a FACSAria III and FACS Diva software (BD Biosciences).
# In order to test compounds for their effect on pyroglutamylation in live cells, 25000 KBM7 cells per well were seeded in a 96-well U-bottom plate in 150 μl IMDM/10% FCS/1% Pen/Strep medium and a 10-point 2-fold dilution range of test compounds. After 72 hours incubation at 37° C., 5% CO2, cells were stained for total CD47 and pE-CD47 and analyzed on a BD Celesta using FACS Diva software (BD Biosciences). Cells gated for DAPI negativity were recorded and the median fluorescence intensity (MFI) of each sample was transformed to linearly scale between the MFI's of wildtype and CD47 knockout cells (in case of the 2D3 antibody) and the wildtype and QPCTL knockout cells (in case of the CC2C6 antibody). IC50's were calculated by 3 parameter logistic regression of the CC2C6 signal vs. compound concentration, where the top of the sigmoidal curve was fixed at 1, using R and the drc package (http://www.r-project.org, https://cran.r-project.org/web/packages/drc/index.html).
row,IC50 [µM],SMILES
1,< 1,Cc1[nH]nc2c1C(c1ccc(N3CCC(F)(F)C3)cc1F)N(c1ccc3[nH]cnc3c1)C2=O (stereo not shown) [FRPPO-126C]

# Same assay, conditions: Homo sapiens, KBM-7, 72 h, CC2C6 signal, Table 2, read-out: Cell Potency Assay 6 (Comparison Data)
row,IC50 [µM],SMILES
1,> 6.25,"CCCOc1ccc(C2c3c(nn(C)c3C)C(=O)N2c2cc(C)c3nnn(C)c3c2)cc1 (racemic) [REF-002, reference compound]"
2,≥ 50,"CCCOc1ccc(C2c3c(nn(C)c3C)C(=O)N2c2ccc3nnc(C)n3c2)cc1 (racemic) [REF-003, reference compound]"
3,> 6.25,"CCCOc1ccc(C2c3c(nn(C)c3C)C(=O)N2c2cc(C)c3nnc(C)n3n2)cc1 (racemic) [REF-006, reference compound]"
4,> 6.25,"CCCOc1ccc(C2c3c(nn(C)c3C)C(=O)N2c2ccc3nnn(C)c3n2)cc1 (racemic) [REF-007, reference compound]"
5,≥ 50,"CCCOc1ccc(C2c3c(nn(C)c3C)C(=O)N2c2ccc3nncn3n2)cc1 (racemic) [REF-005, reference compound]"
6,≥ 50,"CCCOc1ccc(C2c3c(nn(C)c3C)C(=O)N2c2cc(NC)c3nnc(C)n3n2)cc1 (racemic) [REF-008, reference compound]"

# Same assay, conditions: Homo sapiens, KBM-7, 72 h, CC2C6 signal, read-out: Cell Pot. Assay No. 6
row,IC50 [µM],SMILES
1,5 to 50,Cc1nn(C)c2c1C(=O)N(c1ccc3[nH]cnc3c1)C2c1ccc(Cl)cc1F (stereo not shown) [FRPPO-052]
2,5 to 50,O=C1c2scnc2C(c2ccc(Cl)cc2F)N1c1ccc2[nH]cnc2c1 (stereo not shown) [FRPPO-057]
3,5 to 50,Cn1nc(C(F)(F)F)c2c1C(c1ccc(Cl)cc1F)N(c1ccc3[nH]cnc3c1)C2=O (stereo not shown) [FRPPO-053]
4,5 to 50,Cc1c2c(nn1C)C(=O)N(c1ccc3[nH]cnc3c1)C2c1ccc(N2CC(C)NC(C)C2)cc1F (stereo not shown) [FRPPO-100]
5,5 to 50,Cc1nc2c(s1)C(=O)N(c1ccc3[nH]cnc3c1)C2c1ccc(Cl)cc1F (stereo not shown) [FRPPO-058]
6,5 to 50,Cc1c2c(nn1C)C(=O)N(c1ccc3[nH]cnc3c1)C2c1ccc(N2CCS(=O)(=O)CC2)cc1F (stereo not shown) [FRPPO-105]
7,1 to 5,Cc1[nH]nc2c1C(c1ccc(N3CCC(F)(F)C3)cc1F)N(c1ccc3[nH]cnc3c1)C2=O (stereo not shown) [FRPPO-126B]
8,1 to 5,Cc1c2c(nn1C)C(=O)N(c1ccc3[nH]cnc3c1)C2c1ccc(N2CCN(C)CC2)cc1F (stereo not shown) [FRPPO-083]
9,5 to 50,Cc1c2c(nn1C)C(=O)N(c1ccc3[nH]cnc3c1)C2c1ccc(N2CCNC(C)C2)cc1F (stereo not shown) [FRPPO-082]
10,< 1,Cc1nn(C)c2c1C(=O)N(c1ccc3[nH]cnc3c1)C2c1ccc(N2CCC(F)(F)C2)cc1F (stereo not shown) [FRPPO-049]
11,< 1,Cc1c2c(nn1C1CC1)C(=O)N(c1ccc3[nH]cnc3c1)C2c1ccc(N2CCC(F)(F)CC2)cc1F (stereo not shown) [FRPPO-137]
12,< 1,Cc1c2c(nn1C)C(=O)N(c1ccc3[nH]cnc3c1)C2c1ccc(N2CCOC[C@H]2C)cc1F (stereo partly shown) [FRPPO-113B]
13,< 1,Cc1c2c(nn1C)C(=O)N(c1ccn3ccnc3c1)C2c1ccc(N2CCOC(C)C2)cc1F (stereo not shown) [FRPPO-197]
14,< 1,Cc1c2c(nn1C)C(=O)N(c1ccc3[nH]cnc3c1)C2c1ccc(-n2cc(C(F)(F)F)cn2)cc1F (stereo not shown) [FRPPO-150A]
15,< 1,CC(C)c1c2c(nn1C)C(=O)N(c1ccc3[nH]cnc3c1)C2c1ccc(N2CCC(F)(F)C2)cc1F (stereo not shown) [FRPPO-152A]
16,< 1,Cc1c2c(nn1C1CC1)C(=O)N(c1ccc3[nH]cnc3c1)C2c1ccc(N2CCC(C(F)(F)F)CC2)cc1F (stereo not shown) [FRPPO-136]
17,1 to 5,Cc1c2c(nn1C)C(=O)N(c1ccc3[nH]cnc3c1)C2c1ccc(N2CC(O)C(F)C2)cc1F (stereo not shown) [FRPPO-089]
18,1 to 5,Cc1nc2c(s1)C(c1ccc(N3CCC(F)(F)C3)cc1F)N(c1ccc3[nH]cnc3c1)C2=O (stereo not shown) [FRPPO-061]
19,1 to 5,Cc1c2c(nn1C)C(=O)N(c1ccc3[nH]cnc3c1)C2c1ccc(N2CCC2)cc1F (stereo not shown) [FRPPO-070]
20,< 1,Cc1c2c(nn1C)C(=O)N(c1ccc3[nH]cnc3c1)C2c1ccc(N2CCC[C@H]2C)cc1F (stereo partly shown) [FRPPO-115A]
21,< 1,Cc1c2c(nn1C)C(=O)N(c1ccc3[nH]cnc3c1)C2c1ccc(-c2ccc(OC(F)(F)F)nc2)cc1F (stereo not shown) [FRPPO-142A]
22,< 1,Cc1[nH]nc2c1C(c1ccc(-n3cc(C(F)(F)F)cn3)cc1F)N(c1ccn3ccnc3c1)C2=O (stereo not shown) [FRPPO-198]
23,1 to 5,Cn1ncc2c1C(c1ccc(Cl)cc1F)N(c1ccc3[nH]cnc3c1)C2=O (stereo not shown) [FRPPO-051]
24,< 1,Cn1nc2c(c1CO)C(c1ccc(N3CCC(F)(F)C3)cc1F)N(c1ccc3[nH]cnc3c1)C2=O (stereo not shown) [FRPPO-157]
25,1 to 5,Cc1c2c(nn1C)C(=O)N(c1ccc3[nH]cnc3c1)C2c1ccc(N2CCN(S(C)(=O)=O)CC2)cc1F (stereo not shown) [FRPPO-111]
26,< 1,Cc1c2c(nn1C)C(=O)N(c1ccc3[nH]cnc3c1)C2c1ccc(N2CCOC[C@@H]2C)cc1F (stereo partly shown) [FRPPO-113A]
27,1 to 5,Cn1nc(C(F)(F)F)c2c1C(c1ccc(N3CCC(F)(F)C3)cc1F)N(c1ccc3[nH]cnc3c1)C2=O (stereo not shown) [FRPPO-050]

row,IC50 [µM],SMILES
1,5 to 50,Cc1nc2c(s1)C(c1ccc(Cl)cc1F)N(c1ccc3[nH]cnc3c1)C2=O (stereo not shown) [FRPPO-064]
2,1 to 5,Cc1nn(C)c2c1C(c1ccc(OCCC(F)F)c(F)c1F)N(c1ccc3[nH]cnc3c1)C2=O (stereo not shown) [FRPPO-167]
3,< 1,Cc1c2c(nn1C)C(=O)N(c1ccc3[nH]cnc3c1)C2c1ccc(N2CCOC(C(F)(F)F)C2)cc1F (stereo not shown) [FRPPO-109]
4,1 to 5,Cc1c2c(nn1C)C(=O)N(c1ccc3[nH]cnc3c1)C2c1ccc(C#N)cc1F (stereo not shown) [FRPPO-069]
5,< 1,Cc1c2c(nn1C)C(=O)N(c1ccc3[nH]cnc3c1)C2c1ccc(N2CCOCC2)cc1F (stereo not shown) [FRPPO-078]
6,< 1,Cc1c2c(nn1C)C(=O)N(c1ccc3[nH]cnc3c1)C2c1ccc(N2CC3CCC(C2)O3)cc1F (stereo not shown) [FRPPO-096]
7,1 to 5,Cc1c2c(nn1C)C(=O)N(c1ccc3[nH]cnc3c1)C2c1ccc(N2CCC23COC3)cc1F (stereo not shown) [FRPPO-079]
8,< 1,Cc1c2c(nn1C)C(=O)N(c1ccc3[nH]cnc3c1)C2c1ccc(N2CC(F)C2)cc1F (stereo not shown) [FRPPO-072]
9,< 1,CC(O)c1c2c(nn1C)C(=O)N(c1ccc3[nH]cnc3c1)C2c1ccc(N2CCC(F)(F)C2)cc1F (stereo not shown) [FRPPO-156]
10,1 to 5,Cc1c2c(nn1C)C(=O)N(c1ccc3[nH]cnc3c1)C2c1ccc(N2CC3CC2CO3)cc1F (stereo not shown) [FRPPO-081]
11,< 1,Cc1[nH]nc2c1C(c1ccc(-c3csc(C(F)(F)F)n3)cc1F)N(c1ccc3[nH]cnc3c1)C2=O (stereo not shown) [FRPPO-147]
12,1 to 5,Cc1nn(C)c2c1C(c1ccc(N3CCC(F)(F)C3)c(F)c1F)N(c1ccc3[nH]cnc3c1)C2=O (stereo not shown) [FRPPO-169]
13,5 to 50,Cc1c2c(nn1C)C(c1ccc(Br)cc1F)N(c1ccc3[nH]cnc3c1)C2=O (stereo not shown) [FRPPO-047]
14,< 1,Cc1c2c(nn1C1CC1)C(=O)N(c1ccc3[nH]cnc3c1)C2c1ccc(N2CCC(F)(F)C2)cc1F (stereo not shown) [FRPPO-127B]
15,< 1,Cc1c2c(nn1C)C(=O)N(c1ccc3[nH]cnc3c1)C2c1ccc(N2CCO[C@@H](C)C2)cc1F (stereo partly shown) [FRPPO-114A]
16,5 to 50,Cc1c2c(nn1C)C(=O)N(c1ccc3[nH]cnc3c1)C2c1cccc(C2CCN(C)CC2)c1F (stereo not shown) [FRPPO-155]
17,< 1,Cc1c2c(nn1C)C(=O)N(c1ccc3[nH]cnc3c1)C2c1ccc(N2CCC3(CCOC3)C2)cc1F (stereo not shown) [FRPPO-104]
18,1 to 5,Cc1nn(C)c2c1C(c1ccc(-n3cc(C(F)(F)F)cn3)cc1)N(c1ccc3[nH]cnc3c1)C2=O (stereo not shown) [FRPPO-174]
19,5 to 50,Cc1c2c(nn1C)C(=O)N(c1ccc3[nH]cnc3c1)C2c1ccc(N2CCC(O)CC2)cc1F (stereo not shown) [FRPPO-085]
20,1 to 5,Cc1c2c(nn1C)C(=O)N(c1ccc3[nH]cnc3c1)C2c1ccc(N2CCCC(O)C2)cc1F (stereo not shown) [FRPPO-086]
21,< 1,Cc1[nH]nc2c1C(c1ccc(-c3cnc(C(F)(F)F)s3)cc1F)N(c1ccc3[nH]cnc3c1)C2=O (stereo not shown) [FRPPO-145]
22,< 1,CC(C)c1[nH]nc2c1C(c1ccc(N3CCC(F)(F)C3)cc1F)N(c1ccc3[nH]cnc3c1)C2=O (stereo not shown) [FRPPO-153]
23,1 to 5,COC(=O)N1CCN(c2ccc(C3c4c(nn(C)c4C)C(=O)N3c3ccc4[nH]cnc4c3)c(F)c2)CC1 (stereo not shown) [FRPPO-107]
24,1 to 5,O=C1c2ncsc2C(c2ccc(Cl)cc2F)N1c1ccc2[nH]cnc2c1 (stereo not shown) [FRPPO-063]
25,< 1,Cc1c2c(nn1C)C(=O)N(c1ccc3[nH]cnc3c1)C2c1ccc(NCCC(F)(F)F)cc1F (stereo not shown) [FRPPO-092]
26,< 1,Cc1c2c(nn1C)C(=O)N(c1ccc3[nH]cnc3c1)C2c1ccc(-c2csc(C(F)(F)F)n2)cc1F (stereo not shown) [FRPPO-146]

row,SMILES,IC50 [µM]
1,Cc1c2c(nn1C)C(=O)N(c1ccc3[nH]cnc3c1)C2c1ccc(N2CC3CC(C2)O3)cc1F (stereo not shown) [FRPPO-077],1 to 5
